Patent US20110039762A1, “TARGETED ANTIMICROBIAL MOIETIES” (C3 JIAN, INC., priority 2009, published 2011)
“Also recorded” adds a separate entry of the source.

Assays:
[1] = tested on: S. pneumoniae; test: Kill or inhibit growth/proliferation; morphology, biofilm and growth disruption (Tables 5, 6); assay type: cell-based, Streptococcus pneumoniae; design: key: A: Peptide aggregates; B: Less hyphal formation; Clumps; Diffuse clumps and small polyps; F: Diffuse growth; H: Thin; I: Growth inhibition; Microcolony formation; Rippled; Small polyps; Thick; W: Halo formation on top, microlonies on bottom; also: test concentration or dose not given here
[2] = tested on: microorganisms (e.g., bacteria, yeasts, fungi); test: Targeting peptide binding to target microorganisms (Table 3); details: preferably 1x PBS; for Target(s): microorganism(s) the targeting peptide binds; for Target(s) (microorganisms bound by the targeting peptide): peptide binding in aqueous buffers varied by peptide solubility
[3] = tested on: microorganisms; test: Peptides having multiple activities (targeting/binding, antimicrobial, growth or phenotype altering); design: key: B: targeting/binding activity;; M: antimicrobial activity;; G: Growth or phenotype altering
Text: In certain embodiments, peptides described herein can have multiple activities. Thus for example, a peptide can have both binding/targeting activity and antimicrobial activity. Such peptides can be used, e.g., in a chimeric construct, for any or all of these properties. Thus, for example, a peptide designated “B” in Table 8 can be used as a targeting peptide. If it is also designated G or M it can also be used for antimicrobial activity.

[4] = peptide binding conducted in aqueous buffers varied by peptide solubility

Row | Substance | Organism, effect [1] | Organism, effect (morphology, biofilm and growth disruption) [1] | Target(s) (microorganisms bound by the targeting peptide) [2] | also measured
1 | HKNKLNIPHIKS [PF-477] | S. pneumoniae (H) |  |  | Target(s) [2, 4]: S. epidermidis; also recorded: M. luteus; also recorded: C. albicans; also recorded: S. pneumoniae; also recorded: C. jeikeium; also recorded: C. jejuni; Activities [3]: G B
2 | LHVIRPRPELSELKFPITKILKVNKQGLKK [PF-752] |  | S. pneumoniae (C) | S. epidermidis and E. coli and MRSA and S. pneumoniae and E. faecalis | Activities [3]: G B
3 | PF-144: peptide having multiple activities (RSGQPVGRPSRRAWLR; Peptide with targeting and/or antimicrobial activity) | S. pneumoniae (H) |  |  | Target(s) ([2]; binding in aqueous buffers depending on peptide solubility): S. epidermidis and M. luteus and E. coli and C. albicans and MRSA and S. pneumoniae and E. faecalis and C. jeikeium; Activities [3]: G B
4 | PF-414: peptide having multiple activities (LLNKKLE; Peptide with targeting and/or antimicrobial activity) | S. pneumoniae (H) |  |  | Target(s) [2, 4]: E. coli; also recorded: C. albicans; also recorded: C. jeikeium; Activities [3]: G B
5 | PF-415 (MIDVTIGQKSKTGAFNASYSICFSGENFSF; Peptide with targeting and/or antimicrobial activity) | S. pneumoniae (D) |  |  | 
6 | PF-416: peptide having multiple activities (SKAGLYGKIERSDKRE; Peptide with targeting and/or antimicrobial activity) | S. pneumoniae (H) |  |  | Target(s) [2, 4]: S. pneumoniae; also recorded: C. jeikeium; Activities [3]: G B
7 | PF-419 (VVTGKVGSLPQIK; Peptide with targeting and/or antimicrobial activity) | S. pneumoniae (H) |  |  | 
8 | PF-449 (MPTTKSKQKGWTNTKKASNTQ; Peptide with targeting and/or antimicrobial activity) | S. pneumoniae (H) |  |  | 
9 | PF-455 (MARNDDDIKKIKGTLGQSPEVYGERKLPYT; Peptide with targeting and/or antimicrobial activity) | S. pneumoniae (A) |  |  | 
10 | PF-465: peptide having multiple activities (chain 1 KPVGKALEEIADGKIEPVVPKEYLG; chain 2 KPVGKALEEIADGKIEPVVPKEYLG; Peptide with targeting and/or antimicrobial activity) | S. pneumoniae (H) |  |  | Activities [3]: G B
11 | PF-468 (EDNKDKKDKKDK; Peptide with targeting and/or antimicrobial activity) | S. pneumoniae (H) |  |  | 
12 | PF-479: peptide having multiple activities (chain 1 AYILKRREEKNK; chain 2 AYILKRREEKNK; Peptide with targeting and/or antimicrobial activity) | S. pneumoniae (C) |  |  | Activities [3]: G B
13 | PF-482: peptide having multiple activities (chain 1 LVGYVRTSGTVRSYKIN; chain 2 LVGYVRTSGTVRSYKIN; Peptide with targeting and/or antimicrobial activity) | S. pneumoniae (S) |  |  | Activities [3]: G B
14 | PF-485 (KNSMSRSIALID; Peptide with targeting and/or antimicrobial activity) | S. pneumoniae (A) |  |  | 
15 | PF-516: peptide having multiple activities (ASKQASKQASKQASKQ; Peptide with targeting and/or antimicrobial activity) | S. pneumoniae (H) |  |  | Activities [3]: G
16 | PF-537: peptide having multiple activities (chain 1 LANDYYKKTKKSW; chain 2 LANDYYKKTKKSW; Peptide with targeting and/or antimicrobial activity) | S. pneumoniae (C) |  |  | Activities [3]: G B
17 | PF-644 (chain 1 TSGLIIGENGLNGL; chain 2 TSGLIIGENGLNGL; Peptide with targeting and/or antimicrobial activity) | S. pneumoniae (H) |  | Mycobacteria spp | 
18 | PF-651 (chain 1 PRWPTGAGRHR; chain 2 PRWPTGAGRHR; Peptide with targeting and/or antimicrobial activity) |  | S. pneumoniae (H) | Mycobacteria spp | 

Row | Substance | Organism, effect [1] | Organism, effect (morphology, biofilm and growth disruption) [1] | Target(s) (microorganisms bound by the targeting peptide) [2] | also measured
19 | PF-652 (chain 1 FLAPARPDLQAQRQALAQ; chain 2 FLAPARPDLQAQRQALAQ; Peptide with targeting and/or antimicrobial activity) |  | S. pneumoniae (A) | Mycobacteria spp | 
20 | PF-653 (chain 1 QSVHPLPAETPVADVI; chain 2 QSVHPLPAETPVADVI; Peptide with targeting and/or antimicrobial activity) |  | S. pneumoniae (H) | Mycobacteria spp | 
21 | PF-660 (chain 1 TDPQATAAPRRRTSPR; chain 2 TDPQATAAPRRRTSPR; Peptide with targeting and/or antimicrobial activity) |  | S. pneumoniae (H) | Mycobacteria spp | 
22 | PF-662 (chain 1 GKQSRAHGPVASRREFRRKSG; chain 2 GKQSRAHGPVASRREFRRKSG; Peptide with targeting and/or antimicrobial activity) |  | S. pneumoniae (A) | Mycobacteria spp | 
23 | PF-663 (chain 1 ATLIPRKA; chain 2 ATLIPRKA; Peptide with targeting and/or antimicrobial activity) |  | S. pneumoniae (A) | Mycobacteria spp | 
24 | PF-665 (chain 1 VLRVATAVGEVPTGL; chain 2 VLRVATAVGEVPTGL; Peptide with targeting and/or antimicrobial activity) |  | S. pneumoniae (H) | Mycobacteria spp | 
25 | PF-666 (chain 1 PNRRSRPR; chain 2 PNRRSRPR; Peptide with targeting and/or antimicrobial activity) |  | S. pneumoniae (A) | Mycobacteria spp | 
26 | PF-682 (chain 1 RRGKSEQGLSRR; chain 2 RRGKSEQGLSRR; Peptide with targeting and/or antimicrobial activity) |  | S. pneumoniae (A) | Mycobacteria spp | 
27 | PF-687 (chain 1 AKRVLSLAVAPHRRQPVQGT; chain 2 AKRVLSLAVAPHRRQPVQGT; Peptide with targeting and/or antimicrobial activity) |  | S. pneumoniae (A) | Mycobacteria spp | 
28 | PF-688 (chain 1 ARNHAVIPAG; chain 2 ARNHAVIPAG; Peptide with targeting and/or antimicrobial activity) |  | S. pneumoniae (A) | Mycobacteria spp | 
29 | PF-691 (chain 1 HRTVEFGVLGTYLVSGGSL; chain 2 HRTVEFGVLGTYLVSGGSL; Peptide with targeting and/or antimicrobial activity) |  | S. pneumoniae (R) | Mycobacteria spp | 
30 | PF-693 (chain 1 PDPAR; chain 2 PDPAR; Peptide with targeting and/or antimicrobial activity) |  | S. pneumoniae (A) | Mycobacteria spp | 
31 | PF-696 (chain 1 IRSGISAAYARPLR; chain 2 IRSGISAAYARPLR; Peptide with targeting and/or antimicrobial activity) |  | S. pneumoniae (H) | Mycobacteria spp | 
32 | PF-699 (chain 1 GRAGVKCRRPTGR; chain 2 GRAGVKCRRPTGR; Peptide with targeting and/or antimicrobial activity) |  | S. pneumoniae (A) | Mycobacteria spp | 
33 | PF-700 (chain 1 LNWPFTGR; chain 2 LNWPFTGR; Peptide with targeting and/or antimicrobial activity) |  | S. pneumoniae (C) | Mycobacteria spp | 
34 | PF-702 (chain 1 LSGRLAGRR; chain 2 LSGRLAGRR; Peptide with targeting and/or antimicrobial activity) |  | S. pneumoniae (H) | Mycobacteria spp | 
35 | PF-704 (chain 1 APAARAAL; chain 2 APAARAAL; Peptide with targeting and/or antimicrobial activity) |  | S. pneumoniae (C) | Mycobacteria spp | 
